Publication PMC3810962 (Cancer research, 2012)
One block for each compound: values may come before it.

Experiments:
ROCK1 [1] = biological target: T1, ROCK1 (Homo sapiens, UniProt Q13464); assay: ProfilerPro kinase panel, % inhibition at […]; format: biochemical; conditions: 0.2 µM
Target sequence in this assay (Q13464 2-1354): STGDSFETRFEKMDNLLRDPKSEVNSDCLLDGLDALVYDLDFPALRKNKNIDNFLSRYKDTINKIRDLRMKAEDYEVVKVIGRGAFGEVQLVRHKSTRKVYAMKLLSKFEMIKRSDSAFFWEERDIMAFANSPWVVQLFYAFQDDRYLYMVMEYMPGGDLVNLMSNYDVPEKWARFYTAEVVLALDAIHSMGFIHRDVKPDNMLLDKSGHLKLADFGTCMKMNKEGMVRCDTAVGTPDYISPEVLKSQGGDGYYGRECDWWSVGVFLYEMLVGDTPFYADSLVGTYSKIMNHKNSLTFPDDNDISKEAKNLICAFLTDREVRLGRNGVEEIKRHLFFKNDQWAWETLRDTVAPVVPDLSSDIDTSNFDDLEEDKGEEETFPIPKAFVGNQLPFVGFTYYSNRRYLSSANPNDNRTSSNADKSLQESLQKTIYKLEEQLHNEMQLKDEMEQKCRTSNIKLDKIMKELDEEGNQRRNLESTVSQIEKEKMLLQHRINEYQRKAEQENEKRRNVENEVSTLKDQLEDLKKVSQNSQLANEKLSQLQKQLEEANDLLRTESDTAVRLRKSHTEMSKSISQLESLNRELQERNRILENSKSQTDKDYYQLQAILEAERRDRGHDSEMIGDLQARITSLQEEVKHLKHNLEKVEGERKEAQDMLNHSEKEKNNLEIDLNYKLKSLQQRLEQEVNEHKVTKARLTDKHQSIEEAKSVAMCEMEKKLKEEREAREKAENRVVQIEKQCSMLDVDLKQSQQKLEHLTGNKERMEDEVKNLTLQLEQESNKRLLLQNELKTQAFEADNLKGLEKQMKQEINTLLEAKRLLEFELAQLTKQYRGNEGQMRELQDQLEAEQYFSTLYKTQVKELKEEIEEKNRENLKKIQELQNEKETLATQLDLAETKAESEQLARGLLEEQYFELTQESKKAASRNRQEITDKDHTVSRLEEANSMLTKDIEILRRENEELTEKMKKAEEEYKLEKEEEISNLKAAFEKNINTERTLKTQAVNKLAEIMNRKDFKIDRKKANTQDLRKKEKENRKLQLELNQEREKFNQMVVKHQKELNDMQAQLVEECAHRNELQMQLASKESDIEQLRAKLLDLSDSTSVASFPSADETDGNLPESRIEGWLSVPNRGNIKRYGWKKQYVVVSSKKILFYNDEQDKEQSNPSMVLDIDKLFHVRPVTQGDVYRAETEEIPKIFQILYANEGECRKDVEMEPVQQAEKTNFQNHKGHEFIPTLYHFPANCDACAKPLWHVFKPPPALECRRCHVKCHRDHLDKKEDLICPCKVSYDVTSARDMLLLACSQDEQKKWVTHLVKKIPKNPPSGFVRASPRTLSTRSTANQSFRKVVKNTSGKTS

STK10 [2] = biological target: T2, STK10 (Homo sapiens, UniProt O94804); assay: ProfilerPro kinase panel, % inhibition at […]; format: biochemical; conditions: 0.2 µM
ROCK2 [3] = biological target: T3, ROCK2 (Homo sapiens, UniProt O75116); assay: ProfilerPro kinase panel, % inhibition at […]; format: biochemical; conditions: 0.2 µM
T3 sequence (O75116 whole entry): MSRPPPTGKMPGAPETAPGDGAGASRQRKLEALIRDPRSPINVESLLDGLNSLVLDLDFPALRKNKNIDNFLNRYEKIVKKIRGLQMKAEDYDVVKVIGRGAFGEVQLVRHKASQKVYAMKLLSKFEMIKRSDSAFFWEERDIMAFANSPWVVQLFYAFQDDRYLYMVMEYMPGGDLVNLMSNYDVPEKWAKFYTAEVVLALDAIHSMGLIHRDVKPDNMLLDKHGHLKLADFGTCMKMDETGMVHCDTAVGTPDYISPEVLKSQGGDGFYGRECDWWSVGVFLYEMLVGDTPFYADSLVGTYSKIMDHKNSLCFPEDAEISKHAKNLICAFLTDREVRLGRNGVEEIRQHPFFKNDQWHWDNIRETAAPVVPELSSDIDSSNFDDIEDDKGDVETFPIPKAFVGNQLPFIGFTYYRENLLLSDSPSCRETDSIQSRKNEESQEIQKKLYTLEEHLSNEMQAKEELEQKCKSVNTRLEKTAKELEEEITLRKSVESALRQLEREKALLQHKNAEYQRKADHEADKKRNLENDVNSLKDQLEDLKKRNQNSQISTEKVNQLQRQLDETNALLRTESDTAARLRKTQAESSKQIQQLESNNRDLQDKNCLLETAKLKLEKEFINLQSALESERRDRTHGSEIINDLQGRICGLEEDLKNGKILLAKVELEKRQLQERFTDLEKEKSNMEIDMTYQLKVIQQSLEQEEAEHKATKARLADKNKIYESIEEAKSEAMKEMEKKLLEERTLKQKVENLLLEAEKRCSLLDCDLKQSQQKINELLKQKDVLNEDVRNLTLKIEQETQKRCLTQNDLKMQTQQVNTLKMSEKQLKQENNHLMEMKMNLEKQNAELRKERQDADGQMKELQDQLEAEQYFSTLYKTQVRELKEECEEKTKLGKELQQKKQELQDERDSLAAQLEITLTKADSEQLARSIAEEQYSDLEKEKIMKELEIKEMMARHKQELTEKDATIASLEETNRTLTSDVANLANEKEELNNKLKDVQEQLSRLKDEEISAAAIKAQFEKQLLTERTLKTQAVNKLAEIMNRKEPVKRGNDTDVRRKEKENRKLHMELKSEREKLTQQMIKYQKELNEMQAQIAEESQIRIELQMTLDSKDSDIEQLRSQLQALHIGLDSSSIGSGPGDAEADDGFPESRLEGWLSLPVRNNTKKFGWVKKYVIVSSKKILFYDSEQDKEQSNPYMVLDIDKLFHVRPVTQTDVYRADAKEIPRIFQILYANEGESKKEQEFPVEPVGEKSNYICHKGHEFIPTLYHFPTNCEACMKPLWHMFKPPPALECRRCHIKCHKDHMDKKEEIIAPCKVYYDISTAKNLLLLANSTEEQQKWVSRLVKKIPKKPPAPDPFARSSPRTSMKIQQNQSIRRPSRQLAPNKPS

ARK5 = biological target: T4, ARK5 (Homo sapiens, UniProt O60285); assay: biochemical; conditions: read-out: % inhibition
T4 sequence (O60285 1-661): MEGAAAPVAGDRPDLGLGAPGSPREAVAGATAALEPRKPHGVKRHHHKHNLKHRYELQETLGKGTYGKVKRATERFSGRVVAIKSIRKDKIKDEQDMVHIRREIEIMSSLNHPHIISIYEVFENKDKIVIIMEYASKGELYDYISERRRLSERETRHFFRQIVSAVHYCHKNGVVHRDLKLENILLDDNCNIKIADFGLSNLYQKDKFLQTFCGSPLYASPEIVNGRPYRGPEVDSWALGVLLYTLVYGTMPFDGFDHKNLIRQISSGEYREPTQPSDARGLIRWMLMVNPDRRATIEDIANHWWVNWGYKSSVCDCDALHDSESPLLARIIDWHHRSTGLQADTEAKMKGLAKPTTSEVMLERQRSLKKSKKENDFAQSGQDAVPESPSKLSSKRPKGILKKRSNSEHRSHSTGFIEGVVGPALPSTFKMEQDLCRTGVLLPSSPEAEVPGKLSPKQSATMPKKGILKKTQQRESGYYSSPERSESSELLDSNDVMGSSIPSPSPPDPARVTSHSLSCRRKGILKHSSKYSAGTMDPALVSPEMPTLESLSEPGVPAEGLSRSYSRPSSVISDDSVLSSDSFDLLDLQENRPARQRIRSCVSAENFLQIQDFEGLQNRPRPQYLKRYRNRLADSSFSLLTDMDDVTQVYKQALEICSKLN

IKKbeta = biological target: T5, IKKbeta (Homo sapiens, UniProt O14920); assay: biochemical; conditions: read-out: % inhibition
T5 sequence (O14920 1-756): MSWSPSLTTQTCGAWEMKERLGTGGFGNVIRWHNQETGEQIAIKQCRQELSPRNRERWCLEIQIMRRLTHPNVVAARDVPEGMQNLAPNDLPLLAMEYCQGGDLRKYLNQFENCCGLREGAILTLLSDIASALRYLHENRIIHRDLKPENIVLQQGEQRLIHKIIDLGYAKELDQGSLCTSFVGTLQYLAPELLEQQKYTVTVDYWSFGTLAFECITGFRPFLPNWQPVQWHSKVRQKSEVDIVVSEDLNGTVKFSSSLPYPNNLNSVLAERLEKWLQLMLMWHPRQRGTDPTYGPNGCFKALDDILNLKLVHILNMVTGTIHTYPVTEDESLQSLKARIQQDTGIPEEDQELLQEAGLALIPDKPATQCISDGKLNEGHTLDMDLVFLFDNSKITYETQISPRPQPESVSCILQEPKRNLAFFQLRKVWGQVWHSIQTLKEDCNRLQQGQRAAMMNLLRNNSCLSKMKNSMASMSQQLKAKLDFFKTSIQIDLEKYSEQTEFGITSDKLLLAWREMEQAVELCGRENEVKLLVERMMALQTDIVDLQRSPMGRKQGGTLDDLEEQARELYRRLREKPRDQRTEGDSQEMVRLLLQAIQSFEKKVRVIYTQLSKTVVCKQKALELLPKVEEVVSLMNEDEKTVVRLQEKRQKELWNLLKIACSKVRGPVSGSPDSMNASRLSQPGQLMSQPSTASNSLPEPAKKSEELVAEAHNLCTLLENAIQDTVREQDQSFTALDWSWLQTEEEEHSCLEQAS

MNK1 = MNK1 (Homo sapiens, UniProt Q9BUB5); assay: biochemical; conditions: read-out: % inhibition
Sequence of MNK1 (Q9BUB5 whole entry): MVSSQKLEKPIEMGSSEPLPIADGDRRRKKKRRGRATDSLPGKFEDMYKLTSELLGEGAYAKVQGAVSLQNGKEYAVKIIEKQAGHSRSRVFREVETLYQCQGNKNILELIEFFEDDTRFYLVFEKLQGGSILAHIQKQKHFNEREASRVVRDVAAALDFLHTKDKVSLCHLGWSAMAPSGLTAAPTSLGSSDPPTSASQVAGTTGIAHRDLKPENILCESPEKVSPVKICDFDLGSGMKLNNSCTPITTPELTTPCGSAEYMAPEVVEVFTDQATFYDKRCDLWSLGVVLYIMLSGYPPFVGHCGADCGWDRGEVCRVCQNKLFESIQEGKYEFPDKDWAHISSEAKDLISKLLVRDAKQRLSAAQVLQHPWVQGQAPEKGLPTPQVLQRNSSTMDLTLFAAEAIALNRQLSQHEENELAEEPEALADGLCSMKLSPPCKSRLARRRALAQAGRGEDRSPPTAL

MST1 = biological target: T6, MST1 (Homo sapiens, UniProt Q13043); assay: biochemical; conditions: read-out: % inhibition
T6 sequence (Q13043 1-487): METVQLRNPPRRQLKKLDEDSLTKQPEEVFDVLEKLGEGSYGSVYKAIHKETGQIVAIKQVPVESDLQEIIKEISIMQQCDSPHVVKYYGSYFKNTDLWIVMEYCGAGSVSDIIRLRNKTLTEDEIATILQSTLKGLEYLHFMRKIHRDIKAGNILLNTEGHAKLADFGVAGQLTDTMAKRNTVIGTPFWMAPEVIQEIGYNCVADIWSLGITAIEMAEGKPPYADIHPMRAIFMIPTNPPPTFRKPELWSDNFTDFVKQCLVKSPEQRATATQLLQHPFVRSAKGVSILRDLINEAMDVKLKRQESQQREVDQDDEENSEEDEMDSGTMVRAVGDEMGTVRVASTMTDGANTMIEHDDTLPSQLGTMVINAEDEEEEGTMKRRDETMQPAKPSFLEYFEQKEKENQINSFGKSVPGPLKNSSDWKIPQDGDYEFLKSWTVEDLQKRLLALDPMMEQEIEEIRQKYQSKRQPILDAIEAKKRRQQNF

PKA = PKA (Homo sapiens, UniProt P17612); assay: biochemical; conditions: read-out: % inhibition
PKCbeta1 = PKCbeta1 (Homo sapiens, UniProt P05771); assay: biochemical; conditions: read-out: % inhibition
PKCdelta = PKCdelta (Homo sapiens, UniProt Q05655); assay: biochemical; conditions: read-out: % inhibition
Sequence of PKCdelta (Q05655 whole entry): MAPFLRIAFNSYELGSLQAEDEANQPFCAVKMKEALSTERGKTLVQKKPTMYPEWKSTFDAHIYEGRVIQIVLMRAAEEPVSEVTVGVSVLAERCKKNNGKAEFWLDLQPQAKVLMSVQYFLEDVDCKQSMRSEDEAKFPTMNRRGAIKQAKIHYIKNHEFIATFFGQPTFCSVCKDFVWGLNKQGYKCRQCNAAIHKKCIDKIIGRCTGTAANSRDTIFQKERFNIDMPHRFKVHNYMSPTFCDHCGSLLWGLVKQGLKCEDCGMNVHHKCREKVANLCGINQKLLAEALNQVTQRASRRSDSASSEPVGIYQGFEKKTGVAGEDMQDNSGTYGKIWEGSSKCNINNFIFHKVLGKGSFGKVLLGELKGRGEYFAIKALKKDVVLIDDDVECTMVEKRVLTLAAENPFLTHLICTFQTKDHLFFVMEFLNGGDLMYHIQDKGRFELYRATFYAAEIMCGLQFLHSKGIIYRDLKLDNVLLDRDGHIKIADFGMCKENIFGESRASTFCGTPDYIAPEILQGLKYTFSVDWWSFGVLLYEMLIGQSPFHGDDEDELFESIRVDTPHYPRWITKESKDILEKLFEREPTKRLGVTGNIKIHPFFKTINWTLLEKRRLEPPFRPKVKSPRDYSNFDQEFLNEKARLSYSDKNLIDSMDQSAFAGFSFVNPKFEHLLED

PKCepsilon = biological target: T7, PKCepsilon (Homo sapiens, UniProt Q02156); assay: biochemical; conditions: read-out: % inhibition
T7 sequence (Q02156 1-737): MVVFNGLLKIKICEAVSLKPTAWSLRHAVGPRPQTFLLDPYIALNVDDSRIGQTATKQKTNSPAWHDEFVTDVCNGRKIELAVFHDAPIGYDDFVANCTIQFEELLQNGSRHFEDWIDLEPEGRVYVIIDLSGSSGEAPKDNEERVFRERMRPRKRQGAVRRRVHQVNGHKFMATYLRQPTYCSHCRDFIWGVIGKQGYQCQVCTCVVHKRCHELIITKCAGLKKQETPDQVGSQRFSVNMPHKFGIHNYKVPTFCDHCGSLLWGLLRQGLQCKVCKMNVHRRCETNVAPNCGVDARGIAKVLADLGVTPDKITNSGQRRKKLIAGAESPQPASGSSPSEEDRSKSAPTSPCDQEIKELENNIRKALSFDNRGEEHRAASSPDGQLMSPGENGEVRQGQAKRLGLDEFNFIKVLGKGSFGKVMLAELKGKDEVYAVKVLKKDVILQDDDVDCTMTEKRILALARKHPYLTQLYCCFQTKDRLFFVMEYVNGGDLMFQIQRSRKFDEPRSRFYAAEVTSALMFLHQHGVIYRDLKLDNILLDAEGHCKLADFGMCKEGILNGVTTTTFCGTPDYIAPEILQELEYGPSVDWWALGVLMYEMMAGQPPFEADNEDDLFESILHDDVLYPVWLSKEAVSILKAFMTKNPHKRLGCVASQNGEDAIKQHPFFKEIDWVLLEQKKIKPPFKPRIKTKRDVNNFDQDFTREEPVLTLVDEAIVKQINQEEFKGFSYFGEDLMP

PKCtheta [4] = biological target: T8, PKCtheta (Homo sapiens, UniProt Q04759); assay: biochemical; conditions: read-out: % inhibition
PKG = biological target: T9, PKG (Homo sapiens, UniProt Q13976); assay: biochemical; conditions: read-out: % inhibition
T9 sequence (Q13976 1-671): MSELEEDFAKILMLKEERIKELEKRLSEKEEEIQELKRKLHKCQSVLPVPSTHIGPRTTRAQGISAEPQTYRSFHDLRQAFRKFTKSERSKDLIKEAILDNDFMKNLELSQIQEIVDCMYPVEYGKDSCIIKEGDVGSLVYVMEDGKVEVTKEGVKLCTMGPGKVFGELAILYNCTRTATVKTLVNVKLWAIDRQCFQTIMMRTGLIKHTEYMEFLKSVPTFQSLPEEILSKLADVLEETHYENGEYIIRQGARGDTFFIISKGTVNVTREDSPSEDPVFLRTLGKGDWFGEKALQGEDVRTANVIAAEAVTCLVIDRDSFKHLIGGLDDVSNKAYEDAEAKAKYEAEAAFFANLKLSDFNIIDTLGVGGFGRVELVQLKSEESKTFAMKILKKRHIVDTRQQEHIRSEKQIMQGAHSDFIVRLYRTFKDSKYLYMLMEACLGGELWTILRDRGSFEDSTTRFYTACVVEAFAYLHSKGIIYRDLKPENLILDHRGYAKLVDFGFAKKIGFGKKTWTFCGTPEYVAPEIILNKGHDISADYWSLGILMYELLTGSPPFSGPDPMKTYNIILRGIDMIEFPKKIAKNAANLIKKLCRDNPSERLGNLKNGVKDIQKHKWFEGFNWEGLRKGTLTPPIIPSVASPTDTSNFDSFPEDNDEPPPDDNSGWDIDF

PKG1b = biological target: T10, PKG1b (Homo sapiens, UniProt Q13976); assay: biochemical; conditions: read-out: % inhibition
T10 sequence (Q13976 1-671): T9 sequence (Q13976 1-671)

PRKX = biological target: T11, PRKX (Homo sapiens, UniProt P51817); assay: biochemical; conditions: read-out: % inhibition
T11 sequence (P51817 1-358): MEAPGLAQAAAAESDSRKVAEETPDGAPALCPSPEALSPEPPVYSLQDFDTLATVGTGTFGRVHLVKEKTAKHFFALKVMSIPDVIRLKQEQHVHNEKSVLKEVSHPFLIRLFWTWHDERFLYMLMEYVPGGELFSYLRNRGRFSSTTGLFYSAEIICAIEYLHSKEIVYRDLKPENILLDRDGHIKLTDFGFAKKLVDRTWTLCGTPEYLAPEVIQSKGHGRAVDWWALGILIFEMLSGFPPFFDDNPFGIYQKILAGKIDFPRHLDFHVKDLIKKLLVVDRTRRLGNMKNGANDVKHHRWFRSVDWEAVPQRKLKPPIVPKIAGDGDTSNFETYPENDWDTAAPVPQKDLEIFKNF

ROCK1 [5] = biological target: T1, ROCK1; assay: biochemical; conditions: read-out: % inhibition
ROCK2 [6] = biological target: T3, ROCK2; assay: biochemical; conditions: read-out: % inhibition
RSK1 = RSK1 (Homo sapiens, UniProt Q15418); assay: biochemical; conditions: read-out: % inhibition
RSK2 = RSK2 (Homo sapiens, UniProt P51812); assay: biochemical; conditions: read-out: % inhibition
RSK3 = RSK3 (Homo sapiens, UniProt Q15349); assay: biochemical; conditions: read-out: % inhibition
STK10 [7] = biological target: T2, STK10; assay: biochemical; conditions: read-out: % inhibition
STK10 [8] = biological target: T2, STK10; assay: ProfilerPro kinase panel, % inhibition at […]; format: biochemical; conditions: read-out: Compound / Y27632
PKCtheta [9] = biological target: T8, PKCtheta; assay: ProfilerPro kinase panel, % inhibition at […]; format: biochemical; conditions: read-out: Compound / Y27632
ROCK2 [10] = biological target: T3, ROCK2; assay: ProfilerPro kinase panel, % inhibition at […]; format: biochemical; conditions: read-out: Compound / OXA-06
ROCK1 [11] = biological target: T1, ROCK1; assay: biochemical; conditions: read-out: Compound / OXA-06
Target sequence in this assay (Q13464 2-1354): as the sequence (Q13464 2-1354) above

T2 sequence (O94804 whole entry): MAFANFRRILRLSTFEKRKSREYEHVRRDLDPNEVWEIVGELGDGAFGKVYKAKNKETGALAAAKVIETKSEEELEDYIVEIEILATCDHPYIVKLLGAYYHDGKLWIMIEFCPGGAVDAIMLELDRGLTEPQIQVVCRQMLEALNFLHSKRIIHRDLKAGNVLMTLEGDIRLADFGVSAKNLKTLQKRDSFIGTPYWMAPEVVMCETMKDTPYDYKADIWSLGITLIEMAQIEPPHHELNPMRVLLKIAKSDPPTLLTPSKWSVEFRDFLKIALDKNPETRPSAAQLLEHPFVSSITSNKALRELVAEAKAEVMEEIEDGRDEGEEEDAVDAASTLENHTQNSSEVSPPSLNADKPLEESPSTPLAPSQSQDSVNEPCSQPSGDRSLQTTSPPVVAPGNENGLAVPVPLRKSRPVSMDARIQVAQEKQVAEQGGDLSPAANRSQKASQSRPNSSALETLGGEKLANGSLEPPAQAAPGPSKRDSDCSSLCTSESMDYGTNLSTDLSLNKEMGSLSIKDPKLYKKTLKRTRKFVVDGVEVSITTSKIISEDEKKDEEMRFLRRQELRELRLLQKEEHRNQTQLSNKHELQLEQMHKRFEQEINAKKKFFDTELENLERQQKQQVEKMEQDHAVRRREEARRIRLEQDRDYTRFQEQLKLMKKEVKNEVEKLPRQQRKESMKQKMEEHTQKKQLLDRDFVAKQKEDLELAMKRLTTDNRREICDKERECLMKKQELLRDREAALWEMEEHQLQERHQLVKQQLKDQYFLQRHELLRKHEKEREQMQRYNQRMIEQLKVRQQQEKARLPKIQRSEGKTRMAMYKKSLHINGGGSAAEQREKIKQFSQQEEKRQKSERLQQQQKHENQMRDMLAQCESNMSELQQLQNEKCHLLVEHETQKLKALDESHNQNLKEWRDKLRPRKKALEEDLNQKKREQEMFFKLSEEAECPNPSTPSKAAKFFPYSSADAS

- Compound / OXA-06 (ROCK1 [1]): 94
- Compound / OXA-06 (STK10 [2]): 58
- Compound / OXA-06 (ROCK2 [3]): 95
- inhibition at 0.2 µM (ARK5): 56%
- inhibition at 0.2 µM (IKKbeta): 56%
- inhibition at 0.2 µM (MNK1): 16%
- inhibition at 0.2 µM (MST1): 19%
- inhibition at 0.2 µM (PKA): 98%
- inhibition at 0.2 µM (PKCbeta1): -3%
- inhibition at 0.2 µM (PKCdelta): 36%
- inhibition at 0.2 µM (PKCepsilon): 26%
- inhibition at 0.2 µM (PKCtheta [4]): 12%
- inhibition at 0.2 µM (PKG): 72%
- inhibition at 0.2 µM (PKG1b): 73%
- inhibition at 0.2 µM (PRKX): 56%
- inhibition at 0.2 µM (ROCK1 [5]): 94%
- inhibition at 0.2 µM (ROCK2 [6]): 95%
- inhibition at 0.2 µM (RSK1): 6%
- inhibition at 0.2 µM (RSK2): 17%
- inhibition at 0.2 µM (RSK3): 10%
- inhibition at 0.2 µM (STK10 [7]): 58%
Compound: Fc1ccccc1CNCc1ccc(-c2ccnc3[nH]ccc23)cc1 [OXA-06]

Compound: C[C@@H](N)[C@H]1CC[C@H](C(=O)Nc2ccncc2)CC1 [Y-27632]
- inhibition at 10 µM (STK10 [8]): 87%
- inhibition at 10 µM (PKCtheta [9]): 82%
- inhibition at 10 µM (ROCK2 [10]): 95%
- inhibition at 10 µM (ARK5): 1%
- inhibition at 10 µM (IKKbeta): 82%
- inhibition at 10 µM (MNK1): 78%
- inhibition at 10 µM (MST1): 59%
- inhibition at 10 µM (PKA): 29%
- inhibition at 10 µM (PKCbeta1): 52%
- inhibition at 10 µM (PKCdelta): 55%
- inhibition at 10 µM (PKG): 64%
- inhibition at 10 µM (PKG1b): 68%
- inhibition at 10 µM (PRKX): 78%
- inhibition at 10 µM (RSK1): 51%
- inhibition at 10 µM (RSK3): 82%
- inhibition at 10 µM (ROCK1 [11]): 94%
